Results: article PMC11497264 (Chembiochem, 2024)
Where two headings read alike, the source gives them in different places. Bridge positions count the residues as written; N and C are the ends. Peptide text beside a SMILES is read from it.

Assays:
human GRP78 = molecular target: T1, human GRP78 (Homo sapiens, UniProt P11021); assay: biochemical; type: binding; settings: for kon: read-out: Ka1 (association rate constant 1)
T1 construct: The full length human GRP78 protein recombinantly produced in Escherichia coli; 6xHis (inferred from capture on nickel-NTA chip); purchased Abcam (Cambridge, UK); host or cells: Escherichia coli

GRP78:S1 interaction = molecular target: T2, GRP78:S1 interaction (Homo sapiens, UniProt P11021); assay: biochemical; type: binding, human GRP78 / SARS-CoV-2 S1
T2 construct: The full length human GRP78 protein recombinantly produced in Escherichia coli; purchased Abcam (GRP78); Peak Proteins Ltd (S1); host or cells: Escherichia coli (GRP78); HEK293 (S1)

[1] = read-out: Kd1 (dissociation rate constant 1)
[2] = read-out: Kd2 (dissociation rate constant 2)

T1 sequence (P11021 19-654): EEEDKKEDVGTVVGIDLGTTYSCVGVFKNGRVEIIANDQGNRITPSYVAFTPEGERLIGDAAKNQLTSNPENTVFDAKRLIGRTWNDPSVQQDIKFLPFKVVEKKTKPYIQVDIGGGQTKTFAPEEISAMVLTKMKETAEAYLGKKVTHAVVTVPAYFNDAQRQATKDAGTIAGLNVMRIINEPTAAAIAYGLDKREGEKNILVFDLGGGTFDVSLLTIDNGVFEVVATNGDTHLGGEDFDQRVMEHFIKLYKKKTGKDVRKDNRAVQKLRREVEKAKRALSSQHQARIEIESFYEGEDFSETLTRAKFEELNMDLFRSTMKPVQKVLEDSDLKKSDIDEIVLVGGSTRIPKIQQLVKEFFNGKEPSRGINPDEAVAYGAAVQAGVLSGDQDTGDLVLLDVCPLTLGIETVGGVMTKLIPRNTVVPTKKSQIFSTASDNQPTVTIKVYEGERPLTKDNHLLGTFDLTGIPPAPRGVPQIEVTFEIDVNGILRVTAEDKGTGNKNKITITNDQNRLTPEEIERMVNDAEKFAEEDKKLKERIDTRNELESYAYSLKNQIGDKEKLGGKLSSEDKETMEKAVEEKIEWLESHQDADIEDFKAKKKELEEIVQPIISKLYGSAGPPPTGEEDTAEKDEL
T2 sequence (P11021 19-654): as above

Compound	Kd (human GRP78; affinity of binding to GRP78) [µM]	kon (human GRP78) [M⁻¹ s⁻¹]	koff (human GRP78; [1]) [s⁻¹]	koff (human GRP78; [2]) [s⁻¹]	IC50 (GRP78:S1 interaction) [µM]	Kd (human GRP78; KD (equilibrium dissociation constant)) [µM]
CC(C)[C@@H]1NC(=O)CNC(=O)[C@H](CC(N)=O)NC(=O)[C@@H](N)CSSC[C@@H](C(N)=O)NC(=O)[C@H](CC(N)=O)NC(=O)[C@H](Cc2ccccc2)NC(=O)CNC(=O)[C@H](CCC(=O)O)NC1=O [LCP W] (H-CNGVEGFNC-NH2; disulfide 1-9)	200	1670	0.43	0.03	< 3	–
CC(C)[C@@H]1NC(=O)CNC(=O)[C@H](CC(N)=O)NC(=O)[C@@H](N)CSSC[C@@H](C(N)=O)NC(=O)[C@H](CC(N)=O)NC(=O)[C@H](Cc2ccccc2)NC(=O)CNC(=O)[C@H](C)NC1=O [LCP O] (H-CNGVAGFNC-NH2; disulfide 1-9)	2000	140	0.643	0.00182	< 3	2120
